Earlier results in PMC9710334 (BMJ Open Gastroenterology, 2022).

B1: vantictumab: Wnt pathway inhibitor (antibody, chains of the INN, looked up, V domains shown)
VH: EVQLVESGGGLVQPGGSLRLSCAASGFTFSHYTLSWVRQAPGKGLEWVSVISGDGSYTYYADSVKGRFTISSDNSKNTLYLQMNSLRAEDTAVYYCARNFIKYVFANWGQGTLVTVSS
VL: DIELTQPPSVSVAPGQTARISCSGDNIGSFYVHWYQQKPGQAPVLVIYDKSNRPSGIPERFSGSNSGNTATLTISGTQAEDEADYYCQSYANTLSLVFGGGTKLTVL

Experiments:
patients with PBC = conditions: approximately ref 1 3; cited from earlier work
treated patients = treated patients ref 37 38; cited from earlier work

Row | Molecule | patients without an optimal biochemical response (patients with PBC) | risk for fragility fractures (treated patients)
1 | C[C@H](CCC(=O)O)[C@H]1CC[C@H]2[C@@H]3[C@@H](O)C[C@@H]4C[C@H](O)CC[C@]4(C)[C@H]3CC[C@]12C [UDCA, ursodeoxycholic acid] | 30%–40% | –
2 | B1 | – | increased risk for fragility fractures
